The test system of one assay is CD1 male mice. Kind of assay: Capacity of the products to induce catalepsy in mice. The following applies: endoperitoneal, 30 minutes prior to the test. It is filed as in vivo. As for the experimental part: (§1) 10 CD1 male mice were used per group. For this test, a steel bar, 10 cm long, was placed at a height of 4.5 cm above the support surface. Onto this, were placed the front legs of the animals. The presence of catalepsy was determined by measuring the time (in seconds) the animal remained in the posture placed. Later, this parameter was placed relatively, on a scale of rising values (0 to 5) through which, the degree of catalepsy determined in both control animals and in these subjected to treatment with the substances under test could be proportionately expressed.
The reference products and these in this study were administered endoperitoneally, in a volume of 10 ml/kg, 30 minutes prior to the test.
Except for CGS 21680 (reference compound) which was dissolved in 0.9% NaCl, the products in the study and the control antagonist ZM 241385 were solubilised in DMSO and then diluted in Cremofor EL and 0.9% NaCl (final concentrations: DMSO 15%, Cremofor EL 15%, NaCl 0.9%).

Assay [1] relates to mice. The assay can be described thus: Capacity to antagonise Haloperidol-induced catalepsy. It is filed as in vivo. The following applies: orally 10 mg/kg and 20 mg/kg; Haloperidol 4 mg/Kg endoperitoneal. The protocol:
as §1
For this study, product ST 1535 was used. Catalepsy was induced in the animals through the endoperitoneal administration of Haloperidol at a dose of 4 mg/Kg, two hours prior measuring catalepsy in the animals, the presence of which was determined according to the method described previously.
After scoring for catalepsy by Haloperidol, the animals were treated orally, with a dose equal to 10 mg/kg and 20 mg/kg of the product ST 1535. Then 60 minutes after treatment, the animals were subjected to further catalepsy scoring, which was carried out at the following times after ST 1535 administration: 120′, 240′, 300′.

The next assay deals with CD1 mice. Kind of assay: Associated L-DOPA and A2a antagonists on Haloperidol-induced catalepsy. It is filed as in vivo. The following applies: ST 1535 1.25 or 2.5 mg/kg per os; L-DOPA 12.5 mg/kg; benserazide 3.12 mg/kg i.p.; Haloperidol 4 mg/kg i.p. The protocol:
For this study, product ST 1535 was used.
CD1 mice, divided into different experimental groups (n=10 per group) were used. All animals were subjected to treatment with Haloperidol (4 mg/kg, i.p.) two hours and 30′ prior to the catalepsy test, carried out according to the method described above.
Later, the animals were subjected to different types of treatment according to their original experimental group (see diagram). All catalepsy evaluations were carried out 2 hours and 30 minutes after Haloperidol treatment.
Haloperidol+ST 1535: ST 1535 2.5 mg/kg, per os, 75′ prior to testing;
Haloperidol+benserazide+L-Dopa: Benserazide 3.12 mg/kg i.p., 90′ prior to testing;
L-DOPA:. 12.5 mg/kg, 60′ prior to testing;
Aloperidol+benserazide+L-Dopa+ST 1535: Benserazide 3.12 mg/kg i.p., 90′ prior to testing;
L-DOPA 12.5 mg/kg, 60′ prior to testing;

A further assay addresses human A2a receptor (Homo sapiens, UniProt P29274). Conditions: ratio of receptor affinity (selectivity).
For assay [2], the system named is mice. The assay can be described thus: Capacity to antagonise CGS 21680 induced catalepsy. It counts as in vivo. The following applies: orally 5 mg/Kg and 10 mg/Kg, 30 minutes prior to CGS 21680 (10 μg/5 μl/mouse i.c.v.); scored 30′, 60′, 120′, 180′. As for the experimental part: as §1
For this study, the product ST 1535 was used. Catalepsy was induced in the animals through the intracerebroventricular administration of CGS 21680 (10 μg/5 μl/mouse), 30 minutes prior to testing for the catalepsy score. The test compound was administered orally at a dose of 5 mg/Kg and 10 mg/Kg , 30 minutes prior to treatment with CGS 21680.
The catalepsy score was derived in the manner described following treatment with OGS 21680 after the following times: 30′, 60′ 120′, 180′.

Sequence of human A2a receptor (P29274 whole entry): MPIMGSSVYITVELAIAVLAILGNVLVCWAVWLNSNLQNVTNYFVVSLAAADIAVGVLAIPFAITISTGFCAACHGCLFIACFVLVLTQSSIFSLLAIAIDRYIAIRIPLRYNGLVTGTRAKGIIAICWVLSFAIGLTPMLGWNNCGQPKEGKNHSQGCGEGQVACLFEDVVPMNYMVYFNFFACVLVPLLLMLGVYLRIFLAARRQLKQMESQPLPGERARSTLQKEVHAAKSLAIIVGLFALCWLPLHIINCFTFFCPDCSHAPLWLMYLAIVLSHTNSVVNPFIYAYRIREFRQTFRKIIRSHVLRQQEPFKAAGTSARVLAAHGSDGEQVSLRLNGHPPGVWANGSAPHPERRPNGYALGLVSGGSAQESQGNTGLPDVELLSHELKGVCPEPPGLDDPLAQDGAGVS

Consider `CCCCc1nc(N)c2nc(-n3nccn3)n(C)c2n1` [ST 1535, 2-butyl-9-methyl-8-(2H-1,2,3-triazol-2-yl)-9H-purine-6-ylamine], for which the “appearance of catalepsy in mice (FIG. 1)” value in the assay on CD1 male mice is given as “none of them brought about the appearance of catalepsy in mice”. Besides, the “effect on Haloperidol induced catalepsy (FIG. 3)” value in the assay with mice [1] is listed as “reduces the appearance of catalepsy in mice”. Further, the “combination with sub threshold dose of L-DOPA plus benserazide on Haloperidol-induced catalepsy (FIG. 4)” value in the assay with CD1 mice was “potentiates the anticataleptic activity of treatment with ineffective doses of L-DOPA and benserazide”. For the same compound, the KiA1/KiA2a at human A2a receptor stood at 47. For the same compound, in the assay on mice [2], the “effect on CGS 21680-induced catalepsy (FIG. 2)” value is reported as “significantly antagonises the appearance of catalepsy at all the observed times”.

The values are drawn from patent US7528252B2, “Derivatives of triazoly-imidazopyridine useful as ligands of the adenosine A2a receptor and their use as medicaments” (Sigma-Tau Industrie Farmaceutiche Riunite S.p.A., priority 2002, dated 2009).
